The term IC50 denotes the concentration at which inhibition is half-maximal.

Each structure is given as a SMILES string. Calls of active or inactive are those of the source. The rule behind the calls is not given here.

Assay [1] concerns TNFa-stimulated cells, VCAM1 expression imaging. The assay can be described thus: blockers of VCAM1 upregulation by TNFa – imaging, TNFa stimulus, retest and dose response, confirmation (AID 1013).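 For cell count: compound on cells 1 h before TNFa then 24 h more.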
Test in assay [2]: as above
Particulars: TNFa-stimulated cells, VCAM1 expression imaging; cell count; at 10 µM; stronger effect = lower value.

For `CCCOC(=O)c1[nH]c2c(c1C)C(=O)CC(c1cccs1)C2` (stereo unspecified), the IC50 in assay [1] was > 10 µM (inactive). Moreover, the cell count in assay [2] stood at 89%.

`N#CC1=C(N)Oc2c(ccc3ccccc23)C1c1cccs1` (stereo unspecified): the IC50 in assay [1] was > 10 µM (inactive). The compound also displayed a cell count in assay [2] of 69.2%.

As for `CCN(CC)c1ccc(-c2nn3c(-c4n[nH]c5c4CCC5)nnc3s2)cc1`, the IC50 in assay [1] is > 10 µM (inactive). In assay [2], this compound came in with a cell count of 57.7%.

Take `Cc1cccc(NC(=O)CSc2nc3ccc(NC(=O)CSc4nnnn4-c4ccccc4)cc3s2)c1C`: in assay [1], the IC50 is > 10 µM (inactive). The same compound registered a cell count in assay [2] of 107%.

Turning to `Cc1ccc(CSc2nc3ccccc3cc2C=O)cc1`, in assay [1], the IC50 is > 10 µM (inactive). Besides, the cell count in assay [2] was 110%.

Consider `Cc1cc(C)c2nc(SCC(=O)N3CC(=O)Nc4ccccc43)c(C#N)cc2c1`, for which the IC50 in assay [1] was 4.81 µM. The same compound showed a cell count in assay [2] of 47.2%.

In the case of `COc1cc(C(=O)N2CCN(c3cc(Cl)ccc3Cl)CC2)cc(OC)c1OC`, the IC50 in assay [1] is > 10 µM (inactive). In assay [2], this compound gave a cell count of 82.9%.

As to `CCOC(=O)c1[nH]c(C)c(C(=O)c2cc(F)ccc2F)c1C`, in assay [1], the IC50 was 0.6 µM. The compound also returned a cell count in assay [2] of 70.7%.

Take `Cc1c(C(=O)OCC(C)C)[nH]c2c1C(=O)CC(c1ccco1)C2` (stereo unspecified): the IC50 in assay [1] is > 10 µM (inactive). The same compound yielded a cell count in assay [2] of 48.4%.

For the compound `Cc1cc(=O)oc2cc(OCC3CC(c4ccccc4Cl)=NO3)ccc12` (stereo unspecified), in assay [1], the IC50 was > 10 µM (inactive). For the same compound, the cell count in assay [2] came to 106%.

Turning to `O=C(Nc1nccs1)c1cccc(N2C(=O)c3cccc4c([N+](=O)[O-])ccc(c34)C2=O)c1`, the IC50 in assay [1] was > 10 µM (inactive). Further, the cell count in assay [2] was found to be 102%.

As for `CN1Cc2cc(C(=O)c3cc(Cl)cc(CSc4ncccn4)c3O)cnc2NC1=O`, in assay [1], the IC50 was > 10 µM (inactive). The compound also gave a cell count in assay [2] of 85.8%.

As to `COc1cc2c(O)c3c(c(-c4ccc5c(c4)OCO5)c2cc1OC)C(=O)OC3`, the IC50 in assay [1] was 3.24 µM. In assay [2], this compound registered a cell count of 86.8%.

Consider `CC(C)Oc1ccccc1C1CC(=O)Nc2cc3c(cc21)OCO3` (stereo unspecified), for which the IC50 in assay [1] was > 10 µM (inactive). The compound further registered a cell count in assay [2] of 80.6%.

Regarding `O=[N+]([O-])c1ccc(Sc2nc3ccccc3o2)c([N+](=O)[O-])c1`, the IC50 in assay [1] was > 10 µM (inactive). Moreover, in assay [2], the cell count amounted to 106%.

Consider `O=S(=O)(c1ccc2c(c1)C(=NO)c1cc(S(=O)(=O)N3CCCCC3)ccc1-2)N1CCCCC1`, for which, in assay [1], the IC50 was > 10 µM (inactive). In assay [2], this compound gave a cell count of 118%.

As to `COc1ccc(NS(=O)(=O)c2cc(C)ccc2NC(=O)c2cc(C)oc2C)cc1`, the IC50 in assay [1] was 3.16 µM. In addition, the cell count in assay [2] was 71%.

On to `O=C(c1ccc(Br)cc1)c1cc([N+](=O)[O-])ccc1N1CCCCC1`, for which, in assay [1], the IC50 was > 10 µM (inactive). This compound also displayed a cell count in assay [2] of 102%.

As to `COc1cc(/C=N/Nc2snc(SC)c2C#N)ccc1O`, in assay [1], the IC50 is > 10 µM (inactive). In assay [2], the cell count was found to be 105%.

On to `CCn1c2ccccc2c2cc(NC(=O)c3cc(OC)c(OC)c(OC)c3)ccc21`, for which the IC50 in assay [1] is 2.79 µM. In assay [2], this compound yielded a cell count of 33.6%.

Consider `CCc1ccc(C(=O)/C=C/c2ccc([N+](=O)[O-])o2)cc1`, for which the IC50 in assay [1] is > 10 µM (inactive). Besides, the cell count in assay [2] was 94.9%.

For `Cc1cc(NC(=O)CSc2nc3ccccc3c(=O)n2C2CCCC2)no1`, the IC50 in assay [1] was > 10 µM (inactive). In addition, in assay [2], the cell count amounted to 111%.

As to `CCCCCc1ccc(-c2ccc(=O)[nH]n2)cc1`, in assay [1], the IC50 was 2.49 µM. Besides, in assay [2], the cell count was determined as 91%.

With `COc1cc(C(=O)N/N=C/c2ccsc2C)cc(OC)c1OC`, the IC50 in assay [1] is > 10 µM (inactive). The cell count in assay [2] is 48.6%.

For the compound `CCc1ccc2oc(-c3cc(N)ccc3O)nc2c1`, in assay [1], the IC50 was > 10 µM (inactive). Also, the cell count in assay [2] came out at 97.7%.

Take `CC(C)(C)C(=O)/C(=C\c1cccc([N+](=O)[O-])c1)n1cncn1`: the IC50 in assay [1] was 1.09 µM. The cell count in assay [2] is 1.73%.

Turning to `CC1CCC/C=C/C2CC(O)CC2C(O)/C=C/C(=O)O1` (stereo unspecified), in assay [1], the IC50 was 0.112 µM. Also, the cell count in assay [2] came to 19.2%.

With `COc1ccc(S(=O)(=O)Nc2cc3c(C(C)=O)c(C)oc3c3ccccc23)cc1`, in assay [1], the IC50 is > 10 µM (inactive). The same compound had a cell count in assay [2] of 113%.

As for `Cn1cc(/C=N/n2cnc3scc(-c4ccc(Cl)cc4)c3c2=O)c2ccccc21`, the IC50 in assay [1] was > 10 µM (inactive). This compound returned a cell count in assay [2] of 88.1%.

On to `Cc1cc(NC(=O)CSc2nc(-c3ccco3)cc(C(F)(F)F)n2)no1`, for which the IC50 in assay [1] was > 10 µM (inactive). The compound further gave a cell count in assay [2] of 94.3%.

Take `COc1ccc(C2=Nn3c(nnc3-c3ccc(OC)cc3)SC2)cc1`: the IC50 in assay [1] is > 10 µM (inactive). The compound further had a cell count in assay [2] of 114%.

Consider `Cc1cccc2cc(C#N)c(SCC(=O)N3CC(=O)Nc4ccccc43)nc12`, for which the IC50 in assay [1] is > 10 µM (inactive). Moreover, the cell count in assay [2] amounted to 110%.

For `CC(C)Oc1ccccc1C1CC(=O)Nc2cc3c(cc21)OCCO3` (stereo unspecified), the IC50 in assay [1] is > 10 µM (inactive). In assay [2], this compound had a cell count of 104%.

The record behind these values is PubChem BioAssay AID1013 (Columbia University Molecular Screening Center, 2008).
